Test: xn = mol fraction of the nth substance listed
Details: Liquid, Vibrating tube method, x1 = 1

CCCO [propan-1-ol] + Cc1ccccc1
mass density [kg/m3]
Details	293.15 K	303.15 K	313.15 K	323.15 K	333.15 K	343.15 K	353.15 K
100 kPa	803.5	795.2	787.6	779.3	770.5	761	752.2
5000 kPa	807.3	799.2	791.9	783.7	775.4	766	757.6
10000 kPa	810.9	802.9	795.9	788	780	770.7	762.7
15000 kPa	814.3	806.7	799.7	792	784.3	775.3	767.6
20000 kPa	817.7	810.1	803.3	795.8	788.4	779.6	772.1
25000 kPa	821	813.6	806.8	799.7	792	783.7	776.3
30000 kPa	824	816.7	810.2	803.2	795.7	787.6	780.4
35000 kPa	827	819.8	813.5	806.6	799.2	791.2	784.1
40000 kPa	829.9	822.9	816.6	809.9	802.6	794.7	787.7
45000 kPa	832.7	825.8	819.7	813	805.9	798.3	791.8
50000 kPa	835.4	828.8	822.7	816.1	809.1	801.6	795.1
55000 kPa	838.1	831.6	825.5	819	812.3	804.6	798.5
60000 kPa	840.7	834.2	828.3	821.8	815.2	807.7	801.7
65000 kPa	843.2	837	831	824.6	818.1	810.6	805
